Source: patent publication US20160376659A1, “Breast Cancer Biomarker” (The University of Manchester, priority 2015, published 2016)

How the values were obtained:
[1] = tested on: CD44^+CD24^low+ BCSCs; settings: Azzam et al., 2013; cited from earlier work
[2] = tested on: CBF1-Notch transcriptional activity; test: Notch transcriptional assay (10×CBF1-luciferase reporter); assay type: cell-based, human; settings: TAMR and FULVR cell lines; 72 h
Procedure: MCF7 resistant cell lines were authenticated by comparative karyotyping to ATCC-derived MCF7. To measure the activation of Notch dependent transcription, cells were transfected with CBF1 firefly luciferase reporter (containing 10 copies of a CBF1 consensus sequence) and CMV-Renilla luciferase reporter. Plasmids were incubated with […] (Roche, 06366244001) in a ratio of 3:1 (μl of […] of DNA) in OptiMEM (Life Technologies, 11058-021) for 15 minutes, before addition to the culture media. After 48 hours cells were lysed with 1× Passive lysis buffer (5×, Promega, E 1941), put on the rocker for 15 minutes and luminescence was assayed with the Dual-Glo Luciferase assay system (Promega, E2920) following manufacturer's instructions. Luciferase activity was measured using a luminometer (Promega, Glomax Multi+ Detection System with Instinct Software). Luminescence of the firefly luciferase was normalised to that of the renilla luciferase.

[3] = tested on: NOTCH4-ICD and JAG1; test: NOTCH4-ICD and JAG1 Western Blot in MCF-7 cells; assay type: cell-based, human; settings: short term treatment of MCF-7 cells in vitro
Procedure: MCF7, T47D and ZR-75-1 cell lines were purchased from American Tissue Culture Collection (ATCC) and cultured in DMEM/F-12, GlutaMAX (Gibco) with 10% FBS (Gibco). Cells were treated for 3 days or 6 days with ethanol (control), 10^-6M 4-OH-tamoxifen or 10^−7M fulvestrant and/or with 10 μM of gamma-secretase inhibitor RO4929097 (Cellagen Technology) or DMSO (control).
Proteins were extracted with Protein Lysis Buffer (25 mM HEPES, 50 mM NaCl, 30 mM NaPP, 50 mM NaF, 1% Triton-X-100, 10% Glycerol, 5 mM EDTA, Protease Inhibitor cocktail, 1 μM PMSF). Lysates were placed on a rotator for 1 hour at 4° C., then were centrifuged at 10000 g at 4° C. for 10 min, and supernatants were collected. Protein concentrations were assessed using the BCA Protein Assay Kit (Thermo Scientific, 23225). Proteins were separated on a 10% gel (Biorad, 456-1033) by SDS-PAGE at 200V for 1 hour, and then were transferred on polyvinylidene difluoride (PVDF) membranes (BioRad, 170-4157) at 25 V/1,300 mA for 15 min using a Trans Blot Turbo (BioRad, 170-4155). Membranes were blocked in a solution of PBS containing 0.05% Tween-20 and 5% skimmed milk (Marvel) for 1 h at room temperature and primary antibodies were incubated overnight at 4° C. […]

[4] = tested on: NOTCH4-ICD and JAG1; test: NOTCH4-ICD and JAG1 Western Blot in PDX treated in vivo; design: species or system mice; settings: 14 day window treatment of PDXs in vivo
Procedure: Tamoxifen citrate (Sigma, T9262, 10 mg/kg/day) and RO4929097 (Cellagen Technology, 3 mg/kg/day) were administered by oral gavage (0.1 ml/dose) on a five day from seven basis (weekends excluded) for fourteen days. Tamoxifen citrate and RO4929097 were prepared in 1% carboxymethylcellulose (Sigma, C9481) dissolved in distilled water. Fulvestrant (kindly provided by Astrazeneca, 200 mg/kg/week) was administered by subcutaneous injection (0.1 ml/dose) on a weekly basis for fourteen days. The HBC×22 and HBC×34 tamoxifen-resistant PDXs have been established by our collaborators in the Curie Institute (Cottu el al, 2014) and were treated for fourteen days in the presence or absence of the gamma-secretase inhibitor RO4929097 (10 mg/kg/day, oral gavage). Xenografts were collected in ice cold DMEM media for live cell assays, histological analysis and RNA and protein extraction. Patient-derived xenograft single cell suspension was obtained using a collagenase-hyaluronidase mixture for digestion (Stem Cell Technologies).
Proteins were extracted with Protein Lysis Buffer (25 mM HEPES, 50 mM NaCl, 30 mM NaPP, 50 mM NaF, 1% Triton-X-100, 10% Glycerol, 5 mM EDTA, Protease Inhibitor cocktail, 1 μM PMSF). […] Protein concentrations were assessed using the BCA Protein Assay Kit (Thermo Scientific, 23225). […]

[5] = tested on: ALDH1A1; settings: short-term administration to patients; analysis of published microarray data; cited from earlier work
[6] = tested on: patient-derived ER+ tumour cells; test: Mammosphere self-renewal of patient-derived ER+ tumour cells; assay type: cell-based, human; settings: 10^−6 M 4-hydroxy-tamoxifen vs ethanol control; secondary mammospheres 7-9 days
[7] = tested on: ER+ BC; test: Tamoxifen trial study (SBII:2a), survival stratified by ALDH1; assay type: in vivo, human; settings: 322 pre-menopausal ER+ BC patients; 2 years adjuvant tamoxifen vs no systemic treatment; ALDH1 dichotomised at median

CBF1-Notch transcriptional activity [2] | SMILES | mammosphere and tumor formation [1] | NOTCH4-ICD and JAG1 protein expression [3] | NOTCH4-ICD and JAG1 protein expression [4] | expression of the ALDH1A1 gene in breast tumors [5] | mammosphere self-renewal [6] | survival benefit from tamoxifen by epithelial ALDH1 expression [7]
inhibited | CC(C)(C(=O)NCC(F)(F)C(F)(F)F)C(=O)N[C@@H]1C(=O)Nc2ccccc2-c2ccccc21 [RO4929097] | reduce | – | – | – | – | –
– | C[C@]12CC[C@@H]3c4ccc(O)cc4C[C@@H](CCCCCCCCC[S+]([O-])CCCC(F)(F)C(F)(F)F)[C@H]3[C@@H]1CC[C@@H]2O (stereo partly drawn) [fulvestrant] | – | up-regulated | up-regulated | significantly increased | – | –
– | CC/C(=C(\c1ccccc1)c1ccc(OCCN(C)C)cc1)c1ccccc1 [tamoxifen, (Z)-2-[4-(1,2-diphenylbut-1-enyl)phenoxy]-N,N-dimethylethanamine] | – | up-regulated | up-regulated | – | about two-fold | improvement in survival (ie. a response to treatment) was only seen in women with low epithelial ALDH1 expression
